Results as given in article PMC10582773, “A clathrin-related protein FaRRP1/SCD2 integrates ABA trafficking and signaling to regulate strawberry fruit ripening” (The Journal of Biological Chemistry, 2023).

What was measured:
[1] = biological target: FaRRP1-His/MBP recombinant fusion protein (strawberry ripening-regulated protein 1) (Fragaria x ananassa (strawberry)); assay: ITC; 200 uM FaPYL2 dropped into 20 uM FaRRP1; ITC200 (MicroCal), 25 C; ITC buffer 20 mM Na2HPO4, 20 mM NaH2PO4, 300 mM NaCl, 20 mM MgCl2, pH 7.4; 20 injections
Chain of FaRRP1-His/MBP recombinant fusion protein (strawberry ripening-regulated protein 1) (Fragaria x ananassa (strawberry)) (K9LRD7 entry or part of it): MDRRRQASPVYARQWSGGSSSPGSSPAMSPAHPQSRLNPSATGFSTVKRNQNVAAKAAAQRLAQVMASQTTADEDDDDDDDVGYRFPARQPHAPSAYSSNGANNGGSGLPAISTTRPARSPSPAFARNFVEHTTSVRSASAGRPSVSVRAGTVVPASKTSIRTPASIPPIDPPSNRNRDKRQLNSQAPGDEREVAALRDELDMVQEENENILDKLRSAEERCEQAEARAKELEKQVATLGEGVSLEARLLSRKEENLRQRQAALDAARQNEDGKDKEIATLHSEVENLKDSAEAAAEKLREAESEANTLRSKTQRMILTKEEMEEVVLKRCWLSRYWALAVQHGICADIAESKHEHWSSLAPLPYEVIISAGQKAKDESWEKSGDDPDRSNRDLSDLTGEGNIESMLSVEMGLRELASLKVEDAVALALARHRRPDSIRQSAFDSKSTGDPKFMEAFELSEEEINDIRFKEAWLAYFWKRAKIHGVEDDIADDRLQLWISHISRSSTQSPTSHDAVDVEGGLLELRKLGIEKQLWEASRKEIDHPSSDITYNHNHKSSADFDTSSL

[2] = system: FaRRP1-mediated endocytosis in root cells; assay: Endocytosis experiment under ABA treatment (FM4-64 staining of root cells); assay type: cell-based, Arabidopsis; settings: 0.1 μM ABA 48 h, 10-days-old seedlings, 5 μM FM4-64 10 min; FaRRP1-OE line compared with WT
Procedure: The 10-days-old FaRRP1 OE and WT Arabidopsis seedlings growing under the normal condition were collected and soaked into the equilibrium solution [1/2 MS salt (pH=5.70), 1% sugar (w/v)] for 30 min. Then, the seedlings were treated with 0.1 μM ABA. After 48 h later, these seedlings were stained with 5 μM FM4-64 (Invitrogen) dye for 10 min, washed with equilibrium solution for 3 times, and root cells were observed under a confocal laser scanning microscope (Zeiss LSM 710 META). The experiment was repeated three times.

[3] = biological target: T1, FaABAR-His fusion protein (Fragaria × ananassa, UniProt C6KF71); assay: ITC binding of ABA to FaABAR
T1 sequence (C6KF71 1-1381): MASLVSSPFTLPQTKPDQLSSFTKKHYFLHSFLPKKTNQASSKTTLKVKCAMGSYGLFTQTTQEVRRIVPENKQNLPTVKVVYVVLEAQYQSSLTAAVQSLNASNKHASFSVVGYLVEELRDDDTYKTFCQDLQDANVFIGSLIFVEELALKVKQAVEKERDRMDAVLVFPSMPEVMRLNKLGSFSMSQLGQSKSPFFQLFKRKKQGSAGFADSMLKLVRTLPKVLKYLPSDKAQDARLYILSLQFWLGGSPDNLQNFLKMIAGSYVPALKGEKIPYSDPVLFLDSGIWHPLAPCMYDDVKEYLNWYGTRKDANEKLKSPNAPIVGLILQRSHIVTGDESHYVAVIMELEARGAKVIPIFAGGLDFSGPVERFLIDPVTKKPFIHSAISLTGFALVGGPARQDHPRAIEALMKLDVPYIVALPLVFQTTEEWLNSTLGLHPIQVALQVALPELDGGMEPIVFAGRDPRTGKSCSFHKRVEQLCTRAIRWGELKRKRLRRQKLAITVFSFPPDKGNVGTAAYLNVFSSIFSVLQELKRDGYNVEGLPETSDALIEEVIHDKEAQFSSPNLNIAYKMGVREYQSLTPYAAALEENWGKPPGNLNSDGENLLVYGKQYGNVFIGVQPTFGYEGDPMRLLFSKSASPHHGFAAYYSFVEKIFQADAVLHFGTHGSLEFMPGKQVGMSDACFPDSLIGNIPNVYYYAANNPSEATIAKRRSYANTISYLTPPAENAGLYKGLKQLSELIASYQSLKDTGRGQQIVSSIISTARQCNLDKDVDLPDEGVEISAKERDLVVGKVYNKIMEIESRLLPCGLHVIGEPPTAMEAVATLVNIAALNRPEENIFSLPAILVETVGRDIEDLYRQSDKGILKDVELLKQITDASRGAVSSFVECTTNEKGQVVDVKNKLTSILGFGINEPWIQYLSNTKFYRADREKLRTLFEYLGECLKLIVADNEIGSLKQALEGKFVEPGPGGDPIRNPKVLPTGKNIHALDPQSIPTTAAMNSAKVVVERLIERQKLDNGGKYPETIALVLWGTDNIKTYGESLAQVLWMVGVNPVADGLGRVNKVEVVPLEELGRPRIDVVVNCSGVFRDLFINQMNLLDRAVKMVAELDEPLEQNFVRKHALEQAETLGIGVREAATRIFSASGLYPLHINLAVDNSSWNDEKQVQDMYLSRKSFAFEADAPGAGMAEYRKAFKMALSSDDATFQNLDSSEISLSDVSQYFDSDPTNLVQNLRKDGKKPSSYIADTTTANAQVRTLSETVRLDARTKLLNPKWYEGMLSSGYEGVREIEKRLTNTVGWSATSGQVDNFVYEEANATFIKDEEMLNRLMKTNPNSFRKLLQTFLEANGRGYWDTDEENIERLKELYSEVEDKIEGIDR
From the text: (§1) The expression and purification of the recombinant proteins FaRRP1, FaPYL2, and FaABAR were done by a prokaryotic (E. coli) expression system. The cDNA encoding the FaRRP1, FaPYL2, and FaABAR was synthesized using the aforementioned method by PCR amplification using the primers listed in Table S1. The recombinant plasmids of pET-28a-FaPYL2-His, pMAL-C5X-FaRRP1-His/MBP, pGEX4T-1-FaRRP1-GST, pET-28a-FaABAR-His were constructed. After positive recombinants were identified by double-digesting and sequencing, the E. coli strain BL21 (DE3) cells with the recombinant plasmid were grown in 500 ml LB medium containing different antibiotics at 37 °C. On A600 at 0.6 to 0.7, 0.5 mM IPTG was added to inducibly express the fusion proteins overnight at 16 °C for 12 h. The cultures were harvested and suspended with 20 ml binding buffer (20 mM Na2HPO4, 20 mM NaH2PO4, 300 mM NaCl, 20 mM MgCl2, 10 mM imidazole, pH 7.4), then lysed by sonication in a Misonix Sonifier at 4 °C; finally, the supernatants were loaded onto BeaverBeads IDA- Ni^2+ (Beaver) columns and mixed gently by shaking at 4 °C for 60 min. […]
(§2) The purified protein was concentrated using an Amicon Ultra-4 centrifugal 3-kDa filter (Millipore) at 3000g for 20 min in a swing bucket rotor (Sigma). […] The binding reaction between fusion protein to ABA was detected by ITC. […]

[4] = system: clathrin-mediated vesicle transport genes; assay: RT-qPCR of clathrin-mediated vesicle transport genes in ABA-incubated fruit discs; assay type: cell-based, Fragaria × ananassa; settings: 100 μM ABA, white-stage fruit discs, vs control
Procedure: In vitro treatments were performed on fruits in the white stage using 100 μM ABA, and ABA-free buffer incubation was used as the control. The incubation was done as described by Song et al. ([77]). After a 2-h incubation followed by washing with double-distilled water, the discs were frozen in liquid nitrogen and kept at −80 °C until use. Samples are collected once at 0 h, 1 h, and 2 h. The experiment was performed with three replicates.
Total RNA was isolated from the fruit using the aforementioned method. The first-strand cDNA was used as the template for RT-qPCR, which was performed using the Trans Start Top UreenqPCR Super Mix Kit (TransGen Biotech) on the Light Cycler 96 real-time PCR system, with cDNA under different treatments as the template and strawberry Actin as the internal reference gene. The reaction procedures were as follows: predenaturation at 94 °C for 30 s, followed by 40 cycles of denaturation at 94 °C for 5 s, annealing at 60 °C for 15 s, and extension at 72 °C for 10 s. The experiment was duplicated three times independently. The Actin of the standard sample and the cDNA of the sample to be tested were repeated three times. Relative expression values were calculated by the 2^−ΔΔCt method, and SPSS22.0 software (https://www.spss.com) was used to analyze the experimental data.

[5] = biological target: FaRRP1-His/MBP fusion protein (Fragaria × ananassa, UniProt K9LRD7); assay: ITC binding of ABA to FaRRP1
Chain of FaRRP1-His/MBP fusion protein (K9LRD7 1-566): as the sequence (K9LRD7 entry or part of it) above
From the text: as §1, §2

[6] = biological target: FaRRP1–FaPYL2 protein complexes; assay: ITC binding of ABA to FaRRP1–FaPYL2 complex; set-up: species or system Fragaria × ananassa; settings: 0.4 mM S-(+)-ABA titrated into 20 μM complex, pH 7.4, 25 °C, endothermic
Procedure: (§3) Whether FaRRP1 affects the binding activity of FaPYL2 and FaABAR to ABA is unclear. For this, FaRRP1-His/MBP, FaPYL2-His, and FaABAR-His were purified and dialyzed into the same buffer (ITC Buffer) (20 mM Na2HPO4, 20 mM NaH2PO4, 300 mM NaCl, 20 mM MgCl2 pH 7.4). Then, the molar concentrations of FaRRP1-FaPYL2 and FaRRP1-FaABAR complexes were mixed into the same ratio and placed at 4 °C for 30 min. Finally, 1-fold protein peptide and 20-fold S- (+)-ABA were used for ITC assays (Fig. 5, D and H).
(§4) The purified protein was concentrated using an Amicon Ultra-4 centrifugal 3-kDa filter (Millipore) at 3000g for 20 min in a swing bucket rotor (Sigma). The protein was then desalted for buffer exchange using a HiTrap desalting column (GE Healthcare). The HiTrap desalting column was filled with ITC buffer (20 mM Na2HPO4, 20 mM NaH2PO4, 300 mM NaCl, 20 mM MgCl2, pH 7.4) to remove ethanol completely and equilibrate the column. The final concentration of the FaRRP1-His/MBP, FaPYL2-His, and FaABAR-His fusion protein was adjusted to 20 μM. The binding reaction between fusion protein to ABA was detected by ITC. To ensure the univariate of the experiment, an ITC buffer was used to prepare an ABA solution with 20 times protein concentration to ensure the matching of buffer environment between the two. The ITC analysis used 20-μM fusion protein and 400-μM ABA in an ITC200 calorimeter (MicroCal). […]

[7] = biological target: FaRRP1–FaABAR protein complexes (Fragaria x ananassa, UniProt C6KF71+K9LRD7); assay: ITC binding of ABA to FaRRP1–FaABAR complex; settings: 0.4 mM S-(+)-ABA titrated into 20 μM complex, pH 7.4, 25 °C, exothermic
Chain of FaRRP1–FaABAR protein complexes (K9LRD7 1-566, one chain of several): as the sequence (K9LRD7 entry or part of it) above
Procedure: as §3, §4

[8] = biological target: FaPYL2-His fusion protein; assay: ITC binding of ABA to FaPYL2; set-up: species or system Fragaria × ananassa; settings: 0.4 mM S-(+)-ABA titrated into 20 μM protein, pH 7.4, 25 °C, endothermic, saturation curve
From the text: as §1, §2

[9] = biological target: FaABAR-His recombinant fusion protein (magnesium chelatase H subunit) (Fragaria x ananassa (strawberry)); assay: ITC; 200 uM FaRRP1 dropped into 20 uM FaABAR; ITC200 (MicroCal), 25 C; ITC buffer 20 mM Na2HPO4, 20 mM NaH2PO4, 300 mM NaCl, 20 mM MgCl2, pH 7.4; 20 injections
[10] = 2 h, decreased in contrast to 1 h treatment

## FaPYL2-His recombinant fusion protein (natural protein)
[1]
  Kd: 75.6 µM

## CC1=CC(=O)CC(C)(C)[C@@]1(O)/C=C/C(C)=C\C(=O)O [ABA, Abscisic acid]
[2]
  degree of PM internalization (FM4-64–labeled fluorescent signal): promote the degree of PM internalization
[3]; ITC fit, 0.4 mM ABA into 20 μM FaABAR
  N (stoichiometry) ABA-FaABAR: 8.60 Sites
[3]; ITC, 0.4 mM S-(+)-ABA titrated into 20 μM protein, pH 7.4, 25 °C, endothermic, could not reach saturation curve
  Kd: 258 µM
[4]; 1 h
  expression of FaAP1: significantly increased
  expression of FaAP2: significantly increased
  expression of FaCHC1: not changed
  expression of FaCHC2: significantly increased
  expression of FaCLC1: significantly increased
  expression of FaCLC2: decreased considerably
  expression of FaSCD1: significantly increased
  expression of FaSCD2: significantly increased
[4]; 2 h
  expression of FaAP1: significantly decreased
  expression of FaCHC1: quite upregulated
  expression of FaCHC2: significantly decreased
  expression of FaCLC2: quite upregulated
  expression of FaSCD1: significantly decreased
[4]; [10]
  expression of FaAP2: significantly increased
  expression of FaSCD2: significantly increased
[5]; ITC fit, 0.4 mM ABA into 20 μM FaRRP1
  N (stoichiometry) ABA-FaRRP1: 0.41 Sites
[5]; ITC, 0.4 mM S-(+)-ABA titrated into 20 μM protein, pH 7.4, 25 °C, exothermic, saturation curve
  Kd: 140 µM
[6]
  Kd: 30.6 µM
[7]
  Kd: 87.7 µM
[8]
  Kd: 102 µM

## FaRRP1-His/MBP recombinant fusion protein (strawberry ripening-regulated protein 1) (natural protein)
[9]
  Kd: 168 µM
